Data as given in a compilation of properties of binary mixtures (doi:10.1016/j.jct.2022.106970).

Experiment: xn = mol fraction of the nth substance listed
Details: 92.3 kPa

CCCC[NH3+].O=C[O-] + CCO
Details	speed of sound, 293.15 K [m/s]	speed of sound, 298.15 K [m/s]	speed of sound, 303.15 K [m/s]	speed of sound, 308.15 K [m/s]	speed of sound, 313.15 K [m/s]	viscosity, 293.15 K [mPa·s]	viscosity, 298.15 K [mPa·s]	viscosity, 303.15 K [mPa·s]	viscosity, 308.15 K [mPa·s]	viscosity, 313.15 K [mPa·s]
x1 = 0.0484	1197.4	1180.8	1164.2	1147.9	1131.6	1.91	1.672	1.512	1.37	1.247
x1 = 0.1038	1232	1215.9	1199.9	1184	1168.2	2.85	2.5	2.26	2.04	1.845
x1 = 0.1507	–	1242.7	1227	1211.4	1196	–	3.44	3.07	2.76	2.49
x1 = 0.2004	1283.9	–	1253.1	–	1222.7	5.28	–	4.15	–	3.33
x1 = 0.2564	1310.4	1295.2	–	–	1250.5	7.29	6.4	–	–	4.54
x1 = 0.2938	1326.3	1311.4	1296.6	1281.9	1267.4	9	7.92	6.99	6.2	5.53
x1 = 0.355	1350.5	1336	–	–	1292.9	12.31	10.71	–	–	7.3
x1 = 0.3886	–	1348.5	1334.2	1320	–	–	12.67	11.04	9.68	–
x1 = 0.4521	1384.5	1370.5	–	–	1328.9	19.7	16.96	–	–	11.16
x1 = 0.5005	1399.2	1385.4	–	1358.1	1344.6	24.9	21.3	–	15.84	13.79
x1 = 0.5487	1413.1	1399.5	1386	1372.7	1359.4	30.5	25.8	22	18.89	16.39
x1 = 0.5982	1426.3	1412.9	–	1386.5	1373.5	37.6	31.7	–	23.1	19.7
x1 = 0.6393	1436.7	1423.5	1410.4	–	1384.7	44.9	37.5	31.5	–	23
x1 = 0.6993	1450.9	1437.9	1425.1	–	1399.8	57.4	47.4	39.5	–	28.3
x1 = 0.749	1462.1	1449.3	1436.6	1424.1	1411.7	70.3	57.5	47.7	39.9	33.8
x1 = 0.7972	–	1459.5	1447	1434.7	1422.5	–	69.5	57.1	47.4	39.8
x1 = 0.8487	1482	–	1457.2	1445.1	1433.2	103.8	–	68.4	56.6	47.2
x1 = 0.8993	1491.4	1479.1	1467	1455	1443.2	126.4	101.1	81.9	67.2	55.7
x1 = 0.9444	–	–	1475.2	1463.4	1451.8	–	–	95.8	78.1	64.4
x1 = 1	1508.6	1496.5	1484.7	1473.1	1461.7	182.3	143.6	114.7	92.7	76.1

CCO + CCCC[NH3+].O=C[O-]
x2 = 0
Details	speed of sound [m/s]	viscosity [mPa·s]
293.15 K	1160.1	1.238
298.15 K	1142.9	1.092
308.15 K	1109	0.912
313.15 K	1092.3	0.836
